Target: RIPK1 (recombinant GST-RIPK1 kinase domain, residues 1-327) (Homo sapiens (Human), UniProt Q13546)
Experiment: RIPK1-ADP-Glo Enzymatic Assay
Type: biochemical
Settings: 25 nM GST-RIPK1, 300 μM ATP, 3 μM dephosphorylated-MBP; 30 minutes pre-incubation, 150 minutes reaction; ten-point titration
Protocol: The enzymatic activity of RIPK1 is measured using an assay derived from ADP-Glo kit (™Promega), which provides a luminescent-based ADP detection system. Specifically, the ADP generated by RIPK1 kinase is proportionally detected as luminescent signals in a homogenous fashion. In this context, the assessment of the inhibitory effect of small molecules (EC50) is measured by the effectiveness of the compounds to inhibit the ATP to ADP conversion by RIPK1.
In this assay, the potency (EC50) of each compound was determined from a ten-point (1:3 serial dilution; top compound concentration of 100000 nM) titration curve using the following outlined procedure. To each well of a white ProxiPlus 384 well-plate, 30 nL of compound (1% DMSO in final assay volume of 3 μL) was dispensed, followed by the addition of 2 μL of 1× assay buffer (25 mM Hepes 7.3, 20 mM MgCl2, 50 mM NaCl, 1 mM DTT, 0.005% Tween20, and 0.02% BSA) containing 37.5 nM of GST-RIPK1 (recombinant GST-RIPK1 kinase domain (residues 1-327) enzyme produced from baculovirus-transfected Sf21 cells: MW=62 kDa). Plates were placed in an ambient temperature humidified chamber for a 30 minutes pre-incubation with compound. Subsequently, each reaction was initiated by the addition of 1 μL 1× assay buffer containing 900 μM ATP and 3 μM dephosphorylated-MBP substrate. The final reaction in each well of 3 μL consists of 25 nM of GST-RIPK1, 300 μM ATP, and 3 μM dephosphorylated-MBP. Kinase reactions were allowed to proceed for 150 minutes prior to adding ADP-Glo reagents per Promega's outlined kit protocol. Dose-response curves were generated by plotting percent effect (% product conversion; Y-axis) vs. Log10 compound concentrations (X-axis). EC50 values were calculated using a non-linear regression, four-parameters sigmoidal dose-response model.

RIPK1 (recombinant GST-RIPK1 kinase domain, residues 1-327), sequence (Q13546 1-327): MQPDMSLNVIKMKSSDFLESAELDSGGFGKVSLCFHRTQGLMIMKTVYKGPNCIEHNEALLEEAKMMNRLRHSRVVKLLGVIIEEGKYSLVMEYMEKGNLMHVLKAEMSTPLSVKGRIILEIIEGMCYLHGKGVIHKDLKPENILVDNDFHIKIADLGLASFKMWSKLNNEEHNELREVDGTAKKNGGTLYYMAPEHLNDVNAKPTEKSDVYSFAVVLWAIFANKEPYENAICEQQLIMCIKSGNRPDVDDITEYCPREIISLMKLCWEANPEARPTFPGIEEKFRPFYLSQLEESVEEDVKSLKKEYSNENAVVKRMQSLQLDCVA

SMILES | IC50
CC(C(=O)N1C[C@@H]2C[C@H]1c1ccccc1O2)(C(F)(F)F)C(F)(F)F [Compound 1-24, 1-[(2S,5S)-2,3-dihydro-2,5-methano-1,4-benzoxazepin-4(5H)-yl]-3,3,3-trifluoro-2-methyl-2-(trifluoromethyl)propan-1-one] | 69 nM
O=C(N1C[C@@H]2C[C@H]1c1ccccc1O2)C1(C(F)(F)F)CCCC1 [Compound 1-26, [(2S,5S)-2,3-dihydro-2,5-methano-1,4-benzoxazepin-4(5H)-yl][1-(trifluoromethyl)cyclopentyl]methanone] | 60 nM
O=C(N1C[C@@H]2C[C@H]1c1ccccc1O2)C1(C(F)F)CCC1 [Compound 1-29, [1-(difluoromethyl)cyclobutyl] [(2S,5S)-2,3-dihydro-2,5-methano-1,4-benzoxazepin-4(5H)-yl]methanone] | 58 nM
CC1(C(=O)N2C[C@@H]3C[C@H]2c2ccccc2O3)CC(F)(F)C1 [Compound 1-31, (3,3-difluoro-1-methylcyclobutyl)[(2S,5S)-2,3-dihydro-2,5-methano-1,4-benzoxazepin-4(5H)-yl]methanone] | 157 nM
CC(CF)(CF)C(=O)N1C[C@@H]2C[C@H]1c1ccccc1O2 [Compound 1-33, 1-[(2S,5S)-2,3-dihydro-2,5-methano-1,4-benzoxazepin-4(5H)-yl]-3-fluoro-2-(fluoromethyl)-2-methylpropan-1-one] | 881 nM
O=C(N1C[C@@H]2C[C@H]1c1ccccc1O2)C12CCC(F)(CC1)C2 [Compound 1-40, ((2S,5S)-2,3-dihydro-2,5-methanobenzo[f][1,4]oxaze-pin-4(5H)-yl)(4-fluorobicyclo[2.2.1]heptan-1-yl)methanone] | 23 nM
O=C(N1C[C@@H]2C[C@H]1c1ccccc1O2)C12CCC(C(F)F)(CC1)C2 [Compound 1-41, (4-(difluoromethyl)bicyclo [2.2.1]heptan-1-yl)((2S,5S)-2,3-dihydro-2,5-methanobenzo[f][1,4]oxaze-pin-4(5H)-yl)methanone] | 13 nM
CC12CC(C(=O)N3C[C@@H]4C[C@H]3c3ccccc3O4)(CO1)C2 [Compound 1-42, [(2S,5S)-2,3-dihydro-2,5-methano-1,4-benzoxazepin-4(5H)-yl](1-methyl-2-oxabicyclo[2.1.1]hexan-4-yl)methanone] | 922 nM
O=C(N1C[C@@H]2C[C@H]1c1ccccc1O2)C12CCC(C(F)(F)F)(CC1)C2 [Compound 1-44, [(2S,5S)-2,3-dihydro-2,5-methano-1,4-benzoxazepin-4(5H)-yl][4-(trifluoromethyl)bicyclo [2.2.1]heptan-1-yl]methanone] | 17 nM
CC1(C)C2CCC1(C(=O)N1C[C@@H]3C[C@H]1c1ccccc1O3)CC2 [Compound 1-45, [(2S,5S)-2,3-dihydro-2,5-methano-1,4-benzoxazepin-4(5H)-yl](7,7-dimethylbicyclo[2.2.1]heptan-1-yl)methanone] | 168 nM
COC12CCC(C(=O)N3C[C@@H]4C[C@H]3c3ccccc3O4)(CC1)C2 [Compound 1-46, [(2S,5S)-2,3-dihydro-2,5-methano-1,4-benzoxazepin-4(5H)-yl](4-methoxybicyclo[2.2.1]heptan-1-yl)methanone] | 117 nM
N#CC12CCC(C(=O)N3C[C@@H]4C[C@H]3c3ccccc3O4)(CC1)CC2 [Compound 1-47, 4-[(2S,5S)-2,3-dihydro-2,5-methano-1,4-benzoxazepine-4(5H)-carbonyl]bicyclo[2.2.2] octane-1-carbonitrile] | 281 nM
O=C(N1C[C@@H]2C[C@H]1c1ccccc1O2)C12CCC(c3ccccc3)(CC1)CC2 [Compound 1-51, [(2S,5S)-2,3-dihydro-2,5-methano-1,4-benzoxazepin-4(5H)-yl](4-phenylbicyclo[2.2.2]octan-1-yl)methanone] | 723 nM
O=C(N1C[C@@H]2C[C@H]1c1ccccc1O2)C12CC(C(F)(F)F)(C1)C2 [Compound 1-52, [(2S,5S)-2,3-dihydro-2,5-methano-1,4-benzoxazepin-4(5H)-yl][3-(trifluoromethyl)bicyclo [1.1.1]pentan-1-yl]methanone] | 199 nM
O=C(N1C[C@@H]2C[C@H]1c1ccccc1O2)C12CCC(C(F)(F)F)(CC1)CC2 [Compound 1-53, [(2S,5S)-2,3-dihydro-2,5-methano-1,4-benzoxazepin-4(5H)-yl][4-(trifluoromethyl)bicyclo [2.2.2]octan-1-yl]methanone] | 510 nM
O=C(N1C[C@@H]2C[C@H]1c1ccccc1O2)C12CCC(C(F)F)(CC1)CC2 [Compound 1-54, [4-(difluoromethyl)bicyclo [2.2.2]octan-1-yl][(2S,5S)-2,3-dihydro-2,5-methano-1,4-benzoxazepin-4(5H)-yl]methanone] | 263 nM
COC(=O)C12CCC(C(=O)N3C[C@@H]4C[C@H]3c3ccccc3O4)(CC1)C2 [Compound 1-55, methyl 4-[(2S,5S)-2,3-dihydro-2,5-methano-1,4-benzoxazepine-4(5H)-carbonyl]bicyclo[2.2.1] heptane-1-carboxylate] | 43 nM
CC(C)(CC#N)C(=O)N1C[C@@H]2C[C@H]1c1ccccc1O2 [Compound 1-57, 4-[(2S,5S)-2,3-dihydro-2,5-methano-1,4-benzoxazepin-4(5H)-yl]-3,3-dimethyl-4-oxobutanenitrile] | 56 nM
COc1ccc(CC(C)(C)C(=O)N2C[C@@H]3C[C@H]2c2ccccc2O3)cc1 [Compound 1-58, 1-[(2S,5S)-2,3-dihydro-2,5-methano-1,4-benzoxazepin-4(5H)-yl]-3-(4-methoxyphenyl)-2,2-dimethylpropan-1-one] | 887 nM

Other lines, results leading:

IC50 | SMILES
140 nM | CN(C)C1(C(=O)N2C[C@@H]3C[C@H]2c2ccccc2O3)CCC1 [Compound 1-25, [(2S,5S)-2,3-dihydro-2,5-methano-1,4-benzoxazepin-4(5H)-yl][1-(dimethylamino)cyclobutyl] methanone]
22 nM | CC(C)(C(=O)N1C[C@@H]2C[C@H]1c1ccccc1O2)C1CC1 [Compound 1-28, 2-cyclopropyl-1-[(2S,5S)-2,3-dihydro-2,5-methano-1,4-benzoxazepin-4(5H)-yl]-2-methylpropan-1-one]
76 nM | N#CC1(C(=O)N2C[C@@H]3C[C@H]2c2ccccc2O3)CCC1 [Compound 1-30, 1-[(2S,5S)-2,3-dihydro-2,5-methano-1,4-benzoxazepine-4(5H)-carbonyl]cyclobutane-1-carbonitrile]
327 nM | N#Cc1cc(N2CCC(C(=O)N3C[C@@H]4C[C@H]3c3ccccc3O4)CC2)ncn1 [Compound 1-36, 6-{4-[(2S,5S)-2,3-dihydro-2,5-methano-1,4-benzoxazepine-4(5H)-carbonyl]piperidin-1-yl}pyrimidine-4-carbonitrile]
124 nM | O=C(C1CCN(c2ncnc3scnc23)CC1)N1C[C@@H]2C[C@H]1c1ccccc1O2 [Compound 1-37, [(2S,5S)-2,3-dihydro-2,5-methano-1,4-benzoxazepin-4(5H)-yl][1-([1,3]thiazolo[5,4-d]pyrimidin-7-yl)piperidin-4-yl]methanone]
146 nM | O=C(N1C[C@@H]2C[C@H]1c1ccccc1O2)C12CC(C1)C2 [Compound 1-38, (bicyclo[1.1.1]pentan-1-yl)[(2S,5S)-2,3-dihydro-2,5-methano-1,4-benzoxazepin-4(5H)-yl]methanone]
213 nM | O=C(C1CCN(c2nccn3ncnc23)CC1)N1C[C@@H]2C[C@H]1c1ccccc1O2 [Compound 1-39, [(2S,5S)-2,3-dihydro-2,5-methano-1,4-benzoxazepin-4(5H)-yl][1-([1,2,4]triazolo[1,5-a]pyrazin-8-yl)piperidin-4-yl]methanone]
18 nM | O=C(N1C[C@@H]2C[C@H]1c1ccccc1O2)C12CCC(CC1)CC2 [Compound 1-43, (bicyclo[2.2.2]octan-1-yl)[(2S,5S)-2,3-dihydro-2,5-methano-1,4-benzoxazepin-4(5H)-yl]methanone]
375 nM | CC1(C(=O)N2C[C@@H]3C[C@H]2c2ccccc2O3)CCN(c2cc(C#N)ncn2)CC1 [Compound 1-48, 6-{4-[(2S,5S)-2,3-dihydro-2,5-methano-1,4-benzoxazepine-4(5H)-carbonyl]-4-methylpiperidin-1-yl}pyrimidine-4-carbonitrile]
117 nM | N#Cc1cc(N2CCC(F)(C(=O)N3C[C@@H]4C[C@H]3c3ccccc3O4)CC2)ncn1 [Compound 1-49, 6-{4-[(2S,5S)-2,3-dihydro-2,5-methano-1,4-benzoxazepine-4(5H)-carbonyl]-4-fluoropiperidin-1-yl}pyrimidine-4-carbonitrile]
159 nM | CC(C)(C#N)C(=O)N1C[C@@H]2C[C@H]1c1ccccc1O2 [Compound 1-59, 3-[(2S,5S)-2,3-dihydro-2,5-methano-1,4-benzoxazepin-4(5H)-yl]-2,2-dimethyl-3-oxopropanenitrile]

From patent publication US20240208986A1, “PHENYL AZEPINES AS RIPK1 INHIBITORS AND METHODS OF USE THEREOF” (Merck Sharp & Dohme LLC, priority 2021, published 2024)
